Experimental data: US20250270190A1, “KIT INHIBITORS” (BLUEPRINT MEDICINES CORPORATION, priority 2022, published 2025)

What follows are molecules tested against T1, c-kit autophosphorylation (Phospho c-Kit Tyr721) in HMC 1.1 (exon 11/13) cells, V654A (Homo sapiens, UniProt P10721, V560G/V654A) (assay: pKIT Meso Scale Discovery (MSD) assay, inhibition of autophosphorylation of KIT, HMC1.1_V654A). Conditions: Table 1, cell line not named for Table 1, b1056 names pKIT HMC1.1_V654A, read-out: Code (IC50 for inhibition of autophosphorylation of KIT, pKIT MSD assay).
T1 construct: endogenous in cells; host or cells: HMC 1.1 (exon 11/13) cells
Format: cell-based
Procedure, shortened: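 HMC1.1 cells were serum-starved for 4 h in serum-free, iron-free, phenol red-free IMDM, then treated with compound in dose-response for 90 min at 37 °C. Staurosporine and DMSO served as controls. Lysates were analysed by MSD electrochemiluminescence immunoassay for phospho-c-Kit Tyr721, and % inhibition of autophosphorylation was derived.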

T1 sequence (P10721 26-976 V560G/V654A): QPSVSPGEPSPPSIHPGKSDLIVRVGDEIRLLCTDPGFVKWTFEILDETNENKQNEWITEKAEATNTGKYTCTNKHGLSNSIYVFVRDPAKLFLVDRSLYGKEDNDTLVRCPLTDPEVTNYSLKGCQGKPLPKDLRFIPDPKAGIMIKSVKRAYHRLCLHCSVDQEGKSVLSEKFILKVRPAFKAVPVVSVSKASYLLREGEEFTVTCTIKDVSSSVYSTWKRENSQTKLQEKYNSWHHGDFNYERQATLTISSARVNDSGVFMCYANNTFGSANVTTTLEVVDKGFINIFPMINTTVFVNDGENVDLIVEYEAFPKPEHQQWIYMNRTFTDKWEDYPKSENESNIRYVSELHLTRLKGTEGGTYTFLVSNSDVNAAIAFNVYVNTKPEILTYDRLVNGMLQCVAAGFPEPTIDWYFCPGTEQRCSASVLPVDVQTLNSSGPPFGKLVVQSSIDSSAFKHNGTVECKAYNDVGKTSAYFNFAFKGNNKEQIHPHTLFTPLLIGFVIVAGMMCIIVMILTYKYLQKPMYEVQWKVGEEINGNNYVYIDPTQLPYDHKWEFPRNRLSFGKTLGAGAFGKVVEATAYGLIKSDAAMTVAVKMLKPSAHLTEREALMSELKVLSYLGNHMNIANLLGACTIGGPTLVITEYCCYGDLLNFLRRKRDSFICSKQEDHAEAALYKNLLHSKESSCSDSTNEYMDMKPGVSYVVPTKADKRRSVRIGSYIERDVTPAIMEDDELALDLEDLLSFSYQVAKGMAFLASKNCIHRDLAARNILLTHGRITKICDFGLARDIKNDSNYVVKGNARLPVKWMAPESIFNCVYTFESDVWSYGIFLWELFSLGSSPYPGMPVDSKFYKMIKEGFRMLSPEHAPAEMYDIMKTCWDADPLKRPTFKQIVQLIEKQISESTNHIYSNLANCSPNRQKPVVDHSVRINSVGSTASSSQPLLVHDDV

Row | Structure (SMILES) | IC50 [nM]
1 | C[C@H](CF)Nc1cc(Nc2cc(N)nc(C(F)F)n2)ncc1C(=O)NCc1ccccn1 [Compound 187, (R)-6-((6-amino-2-(difluoromethyl)pyrimidin-4-yl)amino)-4-((1-fluoropropan-2-yl)amino)-N-(pyridin-2-ylmethyl)nicotinamide] | 10 to 40
2 | C[C@@H](CF)Nc1cc(Nc2cc(N)nc(C(F)F)n2)ncc1C(=O)NC12CC(CO)(C1)C2 [Compound 188, (S)-6-((6-amino-2-(difluoromethyl)pyrimidin-4-yl)amino)-4-((1-fluoropropan-2-yl)amino)-N-(3-(hydroxymethyl)bicyclo[1.1.1]pentan-1-yl)nicotinamide] | 10 to 40
3 | C[C@H](CF)Nc1cc(Nc2cc(N)nc(C(F)F)n2)ncc1C(=O)NC12CC(CO)(C1)C2 [Compound 189, (R)-6-((6-amino-2-(difluoromethyl)pyrimidin-4-yl)amino)-4-((1-fluoropropan-2-yl)amino)-N-(3-(hydroxymethyl)bicyclo[1.1.1]pentan-1-yl)nicotinamide] | 10 to 40
4 | CC(CF)Oc1cc(Nc2cc(N)nc(C(F)F)n2)ncc1-c1cnn(CC(C)(C)O)c1 (stereo not drawn) [Compound 190, 1-(4-(6-((6-amino-2-(difluoromethyl)pyrimidin-4-yl)amino)-4-((1-fluoropropan-2-yl)oxy)pyridin-3-yl)-1H-pyrazol-1-yl)-2-methylpropan-2-ol] | < 10
5 | Nc1cc(Nc2cc(OC(F)F)c(-c3cnn(CCN4CCC4)c3)cn2)nc(C(F)F)n1 [Compound 191, N4-(5-(1-(2-(azetidin-1-yl)ethyl)-1H-pyrazol-4-yl)-4-(difluoromethoxy)pyridin-2-yl)-2-(difluoromethyl)pyrimidine-4,6-diamine] | < 10
6 | CN1CCC(n2cc(-c3cnc(Nc4cc(N)nc(C(F)F)n4)cc3OC(F)F)cn2)C1 (stereo not drawn) [Compound 192, N4-(4-(difluoromethoxy)-5-(1-(1-methylpyrrolidin-3-yl)-1H-pyrazol-4-yl)pyridin-2-yl)-2-(difluoromethyl)pyrimidine-4,6-diamine] | < 10
7 | CNC(C)(C)Cn1cc(-c2cnc(Nc3cc(N)nc(C(F)F)n3)cc2OC(F)F)cn1 [Compound 193, N4-(4-(difluoromethoxy)-5-(1-(2-methyl-2-(methylamino)propyl)-1H-pyrazol-4-yl)pyridin-2-yl)-2-(difluoromethyl)pyrimidine-4,6-diamine] | < 10
8 | CN(C)CCn1cc(-c2cnc(Nc3cc(N)nc(C(F)F)n3)cc2OC(F)(F)F)cn1 [Compound 194, 2-(difluoromethyl)-N4-(5-(1-(2-(dimethylamino)ethyl)-1H-pyrazol-4-yl)-4-(trifluoromethoxy)pyridin-2-yl)pyrimidine-4,6-diamine] | < 10
9 | COc1cc(Nc2cc(N)nc(C(F)F)n2)ncc1-c1cnn(CCNCC(F)(F)F)c1 [Compound 197, 2-(difluoromethyl)-N4-(4-methoxy-5-(1-(2-((2,2,2-trifluoroethyl)amino)ethyl)-1H-pyrazol-4-yl)pyridin-2-yl)pyrimidine-4,6-diamine] | < 10
10 | CC(C)(O)Cn1cc(-c2cnc(Nc3cc(N)nc(C(F)F)n3)cc2OC(F)(F)F)cn1 [Compound 198, 1-(4-(6-((6-amino-2-(difluoromethyl)pyrimidin-4-yl)amino)-4-(trifluoromethoxy)pyridin-3-yl)-1H-pyrazol-1-yl)-2-methylpropan-2-ol] | < 10
11 | COc1cc(Nc2cc(N)nc(C(F)F)n2)ncc1-c1cnn(CCN(C)CC(F)(F)F)c1 [Compound 199, 2-(difluoromethyl)-N4-(4-methoxy-5-(1-(2-(methyl(2,2,2-trifluoroethyl)amino)ethyl)-1H-pyrazol-4-yl)pyridin-2-yl)pyrimidine-4,6-diamine] | < 10
12 | CNC(C)(C)Cn1cc(-c2cnc(Nc3cc(N)nc(C(F)F)n3)cc2OC(F)(F)F)cn1 [Compound 200, 2-(difluoromethyl)-N4-(5-(1-(2-methyl-2-(methylamino)propyl)-1H-pyrazol-4-yl)-4-(trifluoromethoxy)pyridin-2-yl)pyrimidine-4,6-diamine] | < 10
13 | CN1CC(n2cc(-c3cnc(Nc4cc(N)nc(C(F)F)n4)cc3OC[C@@H]3CCCO3)cn2)C1 [Compound 201, (S)-2-(difluoromethyl)-N4-(5-(1-(1-methylazetidin-3-yl)-1H-pyrazol-4-yl)-4-((tetrahydrofuran-2-yl)methoxy)pyridin-2-yl)pyrimidine-4,6-diamine] | 10 to 40
14 | CN1CC(n2cc(-c3cnc(Nc4cc(N)nc(C(F)F)n4)cc3OC[C@H]3CCCO3)cn2)C1 [Compound 202, (R)-2-(difluoromethyl)-N4-(5-(1-(1-methylazetidin-3-yl)-1H-pyrazol-4-yl)-4-((tetrahydrofuran-2-yl)methoxy)pyridin-2-yl)pyrimidine-4,6-diamine] | 10 to 40
15 | CN(CCn1cc(-c2cnc(Nc3cc(N)nc(C(F)F)n3)cc2OC2CC2)cn1)CC(F)(F)F [Compound 203, N4-(4-cyclopropoxy-5-(1-(2-(methyl(2,2,2-trifluoroethyl)amino)ethyl)-1H-pyrazol-4-yl)pyridin-2-yl)-2-(difluoromethyl)pyrimidine-4,6-diamine] | < 10
